The subject of series [1] is SW-620. The series is described as follows: Antiproliferative activity against human SW620 cells assessed as reduction in cell viability at 20 uM measured for 72 hrs by MTT assay. Type of series: functional, cell-based.
The test system of series [2] is A549. As to the kind of experiment: Antiproliferative activity against human A549 cells assessed as reduction in cell viability at 20 uM measured for 72 hrs by MTT assay. The format is functional, cell-based. Background: Tetrazolium dyes change colour on reduction, which living cells bring about.
Series [3] has as its system EJ-28. As to the kind of experiment: Antiproliferative activity against human EJ-28 cells assessed as reduction in cell viability at 20 uM measured for 72 hrs by MTT assay. The format is functional, cell-based.
Series [4] concerns HT-1080. The series is described as follows: Antiproliferative activity against human HT-1080 cells assessed as reduction in cell viability at 20 uM measured for 72 hrs by MTT assay. The format is functional, cell-based.
The subject of series [5] is MCF7. The series is described as follows: Antiproliferative activity against human MCF7 cells assessed as reduction in cell viability at 20 uM measured for 72 hrs by MTT assay. The format is functional, cell-based.
Series [6] has as its system SW-620. The series is described as follows: Cytotoxicity against human SW620 cells assessed inhibition of cell growth incubated for 72 hrs by MTT assay. The format is functional, cell-based. The note with it: SW-620, 72 h.
In series [7] the test system is A549. The series is described as follows: Cytotoxicity against human A549 cells assessed inhibition of cell growth incubated for 72 hrs by MTT assay. The note with it: A549, 72 h. The format is functional, cell-based.
Series [8] has as its system EJ-28. The series is described as follows: Cytotoxicity against human EJ-28 cells assessed inhibition of cell growth incubated for 72 hrs by MTT assay. The format is functional, cell-based. The conditions noted are these: EJ-28, 72 h.
Series [9] deals with HT-1080. The series is described as follows: Cytotoxicity against human HT-1080 cells assessed inhibition of cell growth incubated for 72 hrs by MTT assay. Type of series: functional, cell-based. The conditions noted are these: HT-1080, 72 h.
Series [10] deals with MCF7. As to the kind of experiment: Cytotoxicity against human MCF7 cells assessed inhibition of cell growth incubated for 72 hrs by MTT assay. The format is functional, cell-based. The note with it: MCF7, 72 h.
The nature of series [11]: Cytotoxicity against human NHDF cells assessed inhibition of cell growth incubated for 72 hrs by MTT assay. The format is toxicity, cell-based.
The nature of series [12]: Selectivity index, ratio of IC50 for cytotoxicity against human NHDF cells to IC50 for cytotoxicity against human SW620 cells.
Series [13] is described as follows: Selectivity index, ratio of IC50 for cytotoxicity against human NHDF cells to IC50 for cytotoxicity against human A549 cells. Type of series: toxicity, cell-based. The note with it: NHDF cells and A549 cells, read-out: Ratio IC50.
Series [14] is described as follows: Selectivity index, ratio of IC50 for cytotoxicity against human NHDF cells to IC50 for cytotoxicity against human EJ-28 cells.
The nature of series [15]: Selectivity index, ratio of IC50 for cytotoxicity against human NHDF cells to IC50 for cytotoxicity against human HT-1080 cells.
Series [16] in a line: Selectivity index, ratio of IC50 for cytotoxicity against human NHDF cells to IC50 for cytotoxicity against human MCF7 cells. Type of series: toxicity, cell-based. The conditions noted are these: NHDF cells and MCF7 cells, read-out: Ratio IC50.

Molecules are shown by their SMILES. The source made the active and inactive calls. The calls are words filed in the database; no cut-off is given here.

What is called IC50 is the concentration needed to halve the response being measured. Lower therefore signals higher potency.

As for `Oc1ccccc1-c1cc(/C=C/c2cccs2)nn1-c1ccccc1`, the outcome in the series on SW-620 [1], with A549 [2], in the series with EJ-28 [3], in the series with HT-1080 [4] and in the series with MCF7 [5] was Active. For the same compound, the IC50 in the series on SW-620 [6] stood at 11.9 µM; in the series with A549 [7] it was 18.5 µM; in the series with EJ-28 [8], 14.3 µM; in the series with HT-1080 [9], 12.8 µM; with MCF7 [10] it was 9.1 µM. Also, in [11], the IC50 at 72 h was 19.2 µM. Also, the “Ratio IC50” value in series [12], in series [14] and in [15] was 1 in each case. Moreover, the selectivity ratio in series [13] and in [16] was 1 in each case.

For `Oc1ccccc1-c1cc(/C=C/c2ccc(Cl)cc2)nn1-c1ccccc1`, the outcome in the series with SW-620 [1], in the series on A549 [2], with EJ-28 [3], in the series with HT-1080 [4] and in the series with MCF7 [5] was Active. Also, the IC50 in the series with SW-620 [6] stood at 16.5 µM; in the series with A549 [7] it was 26.3 µM; in the series on EJ-28 [8], 13.4 µM; with HT-1080 [9] it was 15.8 µM; in the series on MCF7 [10], 15.2 µM. In series [11], this compound came in with an IC50 at 72 h of 40.5 µM. The “Ratio IC50” value in [12], in series [14] and in series [15] was 1.5 throughout. Further, the selectivity ratio in series [13] and in series [16] was 1.5 throughout.

`COc1cccc(/C=C/c2cc(-c3ccccc3O)n(-c3ccccc3)n2)c1`: the result in the series with SW-620 [1], in the series on A549 [2], with EJ-28 [3], in the series on HT-1080 [4] and in the series with MCF7 [5] was Active. Besides, the IC50 was 22.1 µM in the series on SW-620 [6]; 22.8 µM in the series on A549 [7]; 14.3 µM in the series with EJ-28 [8]; 20 µM with HT-1080 [9]; 16.2 µM in the series on MCF7 [10]. The IC50 at 72 h in [11] was over 50 µM. Besides, the “Ratio IC50” value in [12], in series [14] and in series [15] was over 2.2 throughout. Besides, the selectivity ratio in series [13] and in series [16] was over 2.2 throughout.

Turning to `COc1ccc(/C=C/c2cc(-c3ccccc3O)n(-c3ccccc3)n2)cc1`, the outcome in the series with SW-620 [1], with A549 [2], with EJ-28 [3], in the series on HT-1080 [4] and in the series with MCF7 [5] was Active. For the same compound, the IC50 in the series with SW-620 [6] amounted to 7.9 µM; in the series on A549 [7] it was 20.8 µM; in the series on EJ-28 [8] it was 12.9 µM; with HT-1080 [9], 14.7 µM; with MCF7 [10] it was 13 µM. This compound returned an IC50 at 72 h in [11] of over 50 µM. The “Ratio IC50” value in series [12], in series [14] and in series [15] was over 2.4 throughout. Further, the selectivity ratio in series [13] and in series [16] was over 2.4 each time.

As for `COc1ccc(/C=C/c2cc(-c3cc(Cl)ccc3O)n(-c3ccccc3)n2)cc1`, the outcome in the series with SW-620 [1], in the series on A549 [2], in the series with EJ-28 [3], with HT-1080 [4] and in the series on MCF7 [5] was Active. In addition, the IC50 amounted to 19.8 µM in the series on SW-620 [6]; 20.9 µM in the series with A549 [7]; 14.3 µM with EJ-28 [8]; 17.2 µM in the series on HT-1080 [9]; 12.1 µM in the series on MCF7 [10]. In addition, half-maximal inhibition in [11] (IC50 at 72 h) required 47 µM. The “Ratio IC50” value in series [12], in series [14] and in series [15] was 2.2 throughout. In addition, the selectivity ratio in [13] and in [16] was 2.2 throughout.

In the case of `COc1ccc(/C=C/c2cc(-c3ccccc3O)n(-c3ccccc3)n2)cc1OC`, the result in the series with SW-620 [1], in the series on A549 [2], in the series on EJ-28 [3], in the series on HT-1080 [4] and with MCF7 [5] was Active. Moreover, the IC50 was 18.5 µM in the series on SW-620 [6]; 19.2 µM in the series on A549 [7]; 18.6 µM with EJ-28 [8]; 15.9 µM in the series with HT-1080 [9]; 13 µM with MCF7 [10]. This compound displayed an IC50 at 72 h in series [11] of over 50 µM. The “Ratio IC50” value in [12], in series [14] and in [15] was over 2.6 throughout. The selectivity ratio in [13] and in [16] was over 2.6 each time.

Regarding `Oc1ccc(Cl)cc1-c1cc(/C=C/c2ccc(Cl)c(Cl)c2)nn1-c1ccccc1`, the outcome in the series with SW-620 [1], with A549 [2], with EJ-28 [3], in the series on HT-1080 [4] and with MCF7 [5] was Active. Also, the IC50 turned out to be 19.2 µM in the series with SW-620 [6]; 20.2 µM in the series on A549 [7]; 4.4 µM in the series on EJ-28 [8]; 17.8 µM with HT-1080 [9]; 15 µM in the series on MCF7 [10]. The 50% inhibitory concentration (IC50) at 72 h in [11] came to 40.2 µM. Also, the “Ratio IC50” value in series [12], in series [14] and in series [15] was 2 in each case. For the same compound, the selectivity ratio in series [13] and in [16] was 2 in each case.

On to `COc1ccc(/C=C/c2cc(-c3cc(Cl)ccc3O)n(-c3ccccc3)n2)cc1OC`, for which the result with SW-620 [1], in the series with A549 [2], in the series with EJ-28 [3], in the series on HT-1080 [4] and in the series with MCF7 [5] was Active. In addition, the IC50 in the series with SW-620 [6] is 16.1 µM; in the series on A549 [7] it was 15.3 µM; in the series with EJ-28 [8], 17.6 µM; in the series on HT-1080 [9] it was 14.5 µM; in the series on MCF7 [10] it was 9.6 µM. Also, the IC50 at 72 h in [11] came to 39.9 µM. For the same compound, the “Ratio IC50” value in series [12], in series [14] and in [15] was 2.5 in each case. For the same compound, the selectivity ratio in series [13] and in series [16] was 2.5 each time.

On to `Oc1ccc(Cl)cc1-c1cc(/C=C/c2ccccc2Cl)nn1-c1ccccc1`, for which the outcome in the series with SW-620 [1], in the series with A549 [2], in the series on EJ-28 [3], with HT-1080 [4] and with MCF7 [5] was Active. In addition, the IC50 was 9.5 µM with SW-620 [6]; 13.2 µM with A549 [7]; 5.1 µM in the series with EJ-28 [8]; 10.9 µM in the series with HT-1080 [9]; 5.7 µM in the series with MCF7 [10]. The same compound came in with an IC50 at 72 h in series [11] of 19.7 µM. For the same compound, the “Ratio IC50” value in series [12] came to 1.5; in series [14] it was 1.5; in [15], 0.9. In addition, the selectivity ratio in series [13] is 1.5; in series [16] it was 0.9.

Turning to `Oc1ccccc1-c1cc(/C=C/c2ccccc2Cl)nn1-c1ccccc1`, the outcome in the series with SW-620 [1], in the series with A549 [2], with EJ-28 [3], with HT-1080 [4] and with MCF7 [5] was Active. Also, the IC50 was found to be 15.7 µM with SW-620 [6]; 22.4 µM with A549 [7]; 11.7 µM in the series on EJ-28 [8]; 16.9 µM in the series on HT-1080 [9]; 15.3 µM with MCF7 [10]. The IC50 at 72 h in [11] is over 50 µM. Further, the “Ratio IC50” value in [12], in [14] and in series [15] was over 2.2 in each case. The selectivity ratio in series [13] and in [16] was over 2.2 throughout.

On to `O=c1[nH]cc(F)c(=O)[nH]1` [FLUOROURACIL], for which the IC50 with SW-620 [6] was determined as 32.5 µM; with A549 [7] it was 7.6 µM; in the series with EJ-28 [8], 11.4 µM; in the series with HT-1080 [9], 6 µM. For the same compound, in series [11], the IC50 at 72 h is over 50 µM. Also, the “Ratio IC50” value in series [12], in series [14] and in series [15] was 1.5 each time.

`Oc1ccc(Cl)cc1-c1cc(/C=C/c2cccc(Cl)c2)nn1-c1ccccc1`: the outcome with SW-620 [1], with A549 [2], with EJ-28 [3], in the series on HT-1080 [4] and with MCF7 [5] was Active. In addition, the IC50 was 8.8 µM with SW-620 [6]; 13.3 µM in the series on A549 [7]; 3.7 µM with EJ-28 [8]; 12.4 µM in the series on HT-1080 [9]; 8.1 µM in the series with MCF7 [10]. Besides, the IC50 at 72 h in [11] came to 16.2 µM. Besides, the “Ratio IC50” value in series [12], in series [14] and in series [15] was 1.2 throughout. The selectivity ratio in series [13] and in series [16] was 1.2 throughout.

Source of the values: ChEMBL document CHEMBL5360581, “Discovery of a novel dual functional phenylpyrazole-styryl hybrid that induces apoptotic and autophagic cell death in bladder cancer cells” (Eur J Med Chem, 2023).
